# Legend:
# [1] = tested on: Escherichia coli; test: Antimicrobial activity against Escherichia coli 25922 assessed as absence bacterial growth measured after 18 to 24 hrs incubation by NCCLS method; format: functional; conditions: time 18-24 hrs
# [2] = tested on: Escherichia coli; test: Antimicrobial activity against Escherichia coli K88 assessed as absence bacterial growth measured after 18 to 24 hrs incubation by NCCLS method; format: functional; conditions: time 18-24 hrs
# [3] = tested on: Salmonella typhimurium; test: Antimicrobial activity against Salmonella typhimurium 14028 assessed as absence bacterial growth measured after 18 to 24 hrs incubation by NCCLS method; format: functional, Salmonella enterica subsp. enterica serovar Typhimurium; conditions: Salmonella enterica, time 18-24 hrs
# [4] = Antimicrobial activity against Salmonella pullorum C7913 assessed as absence bacterial growth measured after 18 to 24 hrs incubation by NCCLS method; format: functional, Salmonella enterica subsp. enterica serovar Pullorum; conditions: Salmonella enterica, time 18-24 hrs
# [5] = tested on: Pseudomonas aeruginosa; test: Antimicrobial activity against Pseudomonas aeruginosa 27853 assessed as absence bacterial growth measured after 18 to 24 hrs incubation by NCCLS method; format: functional; conditions: time 18-24 hrs
# [6] = tested on: Acinetobacter baumannii; test: Antimicrobial activity against Acinetobacter baumannii 1.6769 assessed as absence bacterial growth measured after 18 to 24 hrs incubation by NCCLS method; format: functional; conditions: time 18-24 hrs
# [7] = tested on: Enterococcus faecalis; test: Antimicrobial activity against Enterococcus faecalis 29212 assessed as absence bacterial growth measured after 18 to 24 hrs incubation by NCCLS method; format: functional; conditions: time 18-24 hrs
# [8] = tested on: Listeria monocytogenes; test: Antimicrobial activity against Listeria monocytogenes 1.10753 assessed as absence bacterial growth measured after 18 to 24 hrs incubation by NCCLS method; format: functional; conditions: time 18-24 hrs
# [9] = tested on: Bacillus cereus; test: Antimicrobial activity against Bacillus cereus 1.932 assessed as absence bacterial growth measured after 18 to 24 hrs incubation by NCCLS method; format: functional; conditions: time 18-24 hrs
# [10] = tested on: Staphylococcus aureus; test: Antimicrobial activity against Staphylococcus aureus 29213 assessed as absence bacterial growth measured after 18 to 24 hrs incubation by NCCLS method; format: functional; conditions: time 18-24 hrs
# [11] = tested on: Staphylococcus aureus; test: Antimicrobial activity against Methicillin-resistant Staphylococcus aureus 43300 assessed as absence bacterial growth measured after 18 to 24 hrs incubation by NCCLS method; format: functional; conditions: time 18-24 hrs
# [12] = tested on: Staphylococcus epidermidis; test: Antimicrobial activity against Staphylococcus epidermidis 12228 assessed as absence bacterial growth measured after 18 to 24 hrs incubation by NCCLS method; format: functional; conditions: time 18-24 hrs
# [13] = tested on: Staphylococcus aureus; test: Antimicrobial activity against Staphylococcus aureus 29213 assessed as absence bacterial growth measured after 18 to 24 hrs incubation by NCCLS m; format: functional; conditions: time 18-24 hrs
# [14] = tested on: Escherichia coli; test: Antimicrobial activity against Escherichia coli 25922 assessed as bacterial killing measured after 16 hrs incubation; format: functional
# [15] = tested on: Escherichia coli; test: Antimicrobial activity against Escherichia coli K88 assessed as bacterial killing measured after 16 hrs incubation; format: functional
# [16] = tested on: Salmonella typhimurium; test: Antimicrobial activity against Salmonella typhimurium 14028 assessed as bacterial killing measured after 16 hrs incubation; format: functional, Salmonella enterica subsp. enterica serovar Typhimurium; conditions: Salmonella enterica
# [17] = tested on: Salmonella typhimurium; test: Antimicrobial activity against Salmonella typhimurium C7731 assessed as bacterial killing measured after 16 hrs incubation; format: functional, Salmonella enterica subsp. enterica serovar Typhimurium; conditions: Salmonella enterica
# [18] = Antimicrobial activity against Salmonella pullorum C7913 assessed as bacterial killing measured after 16 hrs incubation; format: functional, Salmonella enterica subsp. enterica serovar Pullorum; conditions: Salmonella enterica
# [19] = tested on: Pseudomonas aeruginosa; test: Antimicrobial activity against Pseudomonas aeruginosa 27853 assessed as bacterial killing measured after 16 hrs incubation; format: functional
# [20] = tested on: Acinetobacter baumannii; test: Antimicrobial activity against Acinetobacter baumannii 1.6769 assessed as bacterial killing measured after 16 hrs incubation; format: functional
# [21] = tested on: Enterococcus faecalis; test: Antimicrobial activity against Enterococcus faecalis 29212 assessed as bacterial killing measured after 16 hrs incubation; format: functional
# [22] = tested on: Listeria monocytogenes; test: Antimicrobial activity against Listeria monocytogenes 1.10753 assessed as bacterial killing measured after 16 hrs incubation; format: functional
# [23] = tested on: Bacillus cereus; test: Antimicrobial activity against Bacillus cereus 1.932 assessed as bacterial killing measured after 16 hrs incubation; format: functional
# [24] = tested on: Staphylococcus aureus; test: Antimicrobial activity against Staphylococcus aureus 29213 assessed as bacterial killing measured after 16 hrs incubation; format: functional
# [25] = tested on: Staphylococcus aureus; test: Antimicrobial activity against Methicillin-resistant Staphylococcus aureus 43300 assessed as bacterial killing measured after 16 hrs incubation; format: functional
# [26] = tested on: Staphylococcus epidermidis; test: Antimicrobial activity against Staphylococcus epidermidis 12228 assessed as bacterial killing measured after 16 hrs incubation; format: functional
# [27] = tested on: Staphylococcus aureus; test: Antimicrobial activity against Staphylococcus aureus 25923 assessed as bacterial killing measured after 16 hrs incubation; format: functional
# [28] = tested on: Salmonella typhimurium; test: Antimicrobial activity against Salmonella typhimurium C7731 assessed as absence bacterial growth measured after 18 to 24 hrs incubation by NCCLS method; format: functional, Salmonella enterica subsp. enterica serovar Typhimurium; conditions: Salmonella enterica, time 18-24 hrs
# [29] = tested on: Escherichia coli; test: Antimicrobial activity against Escherichia coli 25922 assessed as absence bacterial growth measured after 18 to 24 hrs incubation in presence of 50% serum by NCCLS method; format: functional; conditions: time 18-24 hrs
# [30] = tested on: Escherichia coli; test: Antimicrobial activity against Escherichia coli 25922 assessed as absence bacterial growth measured after 18 to 24 hrs incubation in presence of 25% serum by NCCLS method; format: functional; conditions: time 18-24 hrs
# [31] = tested on: Escherichia coli; test: Antimicrobial activity against Escherichia coli 25922 assessed as absence bacterial growth measured after 18 to 24 hrs incubation in presence of 12.5% serum by NCCLS method; format: functional; conditions: time 18-24 hrs
# [32] = Hemolytic activity in human RBC at effective concentration at 128 uM measured after 1 hr by microplate reader relative to control; format: toxicity, cell-based, Erythrocyte; conditions: human red blood cells (erythrocytes), read-out: Activity
# [33] = tested on: Escherichia coli; test: Antimicrobial activity against Escherichia coli 25922 assessed as absence bacterial growth measured after 18 to 24 hrs incubation in presence of NaCl by NCCLS method; format: functional; conditions: time 18-24 hrs
# [34] = tested on: Escherichia coli; test: Antimicrobial activity against Escherichia coli 25922 assessed as absence bacterial growth measured after 18 to 24 hrs incubation in presence of KCl by NCCLS method; format: functional; conditions: time 18-24 hrs
# [35] = tested on: Escherichia coli; test: Antimicrobial activity against Escherichia coli 25922 assessed as absence bacterial growth measured after 18 to 24 hrs incubation in presence of NH4Cl by NCCLS method; format: functional; conditions: time 18-24 hrs
# [36] = tested on: Escherichia coli; test: Antimicrobial activity against Escherichia coli 25922 assessed as absence bacterial growth measured after 18 to 24 hrs incubation in presence of MgCl2 by NCCLS method; format: functional; conditions: time 18-24 hrs
# [37] = tested on: Escherichia coli; test: Antimicrobial activity against Escherichia coli 25922 assessed as absence bacterial growth measured after 18 to 24 hrs incubation in presence of ZnCl2 by NCCLS method; format: functional; conditions: time 18-24 hrs
# [38] = tested on: Escherichia coli; test: Antimicrobial activity against Escherichia coli 25922 assessed as absence bacterial growth measured after 18 to 24 hrs incubation in presence of FeCl3 by NCCLS method; format: functional; conditions: time 18-24 hrs
# [39] = Cytotoxicity against mouse RAW264.7 cells assessed as cell survival rate at 32 to 64 uM measured after 8 hrs by MTT assay relative to control; format: toxicity, cell-based; conditions: dose 32-64 µM, read-out: Activity
# [40] = Cytotoxicity against human HEK-293T cells assessed as cell survival rate at 64 uM measured after 8 hrs by MTT assay relative to control; format: toxicity, cell-based; conditions: read-out: Activity
# [41] = Cytotoxicity against porcine IPEC-J2 cells assessed as cell survival rate at 64 uM measured after 8 hrs by MTT assay relative to control; format: toxicity, cell-based, Sus scrofa; conditions: pig, read-out: Activity
# [42] = tested on: Erythrocyte; test: Hemolytic activity in human RBC at effective concentration measured after 1 hr by microplate reader analysis; format: toxicity, cell-based
# [43] = Cytotoxicity against mouse RAW264.7 cells assessed as cell survival rate measured after 8 hrs by MTT assay; format: toxicity, cell-based
# [44] = Cytotoxicity against human HEK-293T cells assessed as cell survival rate measured after 8 hrs by MTT assay; format: toxicity, cell-based
# [45] = Cytotoxicity against porcine IPEC-J2 cells assessed as cell survival rate measured after 8 hrs by MTT assay; format: toxicity, cell-based, Sus scrofa; conditions: pig
substance,measurement,setting,value
H-GKLWLKGGKLWLKGAKLWLKG-NH2,MIC,[1],2 µM
same,MIC,[2],1 µM
same,MIC,[3],4 µM
same,MIC,[4],1 µM
same,MIC,[5],4 µM
same,MIC,[6],2 µM
same,MIC,[7],4 µM
same,MIC,[8],> 32 µM
same,MIC,[9],4 µM
same,MIC,[10],4 µM
same,MIC,[11],2 µM
same,MIC,[12],4 µM
same,MIC,[13],4 µM
same,MBC,[14],2 µM
same,MBC,[15],1 µM
same,MBC,[16],4 µM
same,MBC,[17],8 µM
same,MBC,[18],2 µM
same,MBC,[19],8 µM
same,MBC,[20],2 µM
same,MBC,[21],4 µM
same,MBC,[22],> 32 µM
same,MBC,[23],4 µM
same,MBC,[24],4 µM
same,MBC,[25],4 µM
same,MBC,[26],4 µM
same,MBC,[27],4 µM
same,MIC,[28],4 µM
same,MIC,[29],> 32 µM
same,MIC,[30],> 32 µM
same,MIC,[31],32 µM
same,"hemolysis at 1 h, 128 µM",[32],< 10%
same,MIC,[33],16 µM
same,MIC,[34],2 µM
same,MIC,[35],2 µM
same,MIC,[36],8 µM
same,MIC,[37],2 µM
same,MIC,[38],2 µM
same,"viability at 8 h, up to 64 µM",[39],60%
same,"viability at 8 h, 64 µM",[40],> 80%
same,"viability at 8 h, 64 µM",[41],> 80%
same,HC10,[42],> 128 µM
same,IC50 at 8 h,[43],> 64 µM
same,IC50 at 8 h,[44],> 64 µM
same,IC50 at 8 h,[45],> 64 µM
H-GKLWLKGGKLWLKGGKLWLKA-NH2,MIC,[1],2 µM
same,MIC,[2],0.5 µM
same,MIC,[3],2 µM
same,MIC,[4],2 µM
same,MIC,[5],4 µM
same,MIC,[6],4 µM
same,MIC,[7],16 µM
same,MIC,[8],> 32 µM
same,MIC,[9],> 32 µM
same,MIC,[10],16 µM
same,MIC,[11],8 µM
same,MIC,[12],8 µM
same,MIC,[13],> 32 µM
same,MBC,[14],4 µM
same,MBC,[15],0.5 µM
same,MBC,[16],8 µM
same,MBC,[17],8 µM
same,MBC,[18],4 µM
same,MBC,[19],4 µM
same,MBC,[20],4 µM
same,MBC,[21],16 µM
same,MBC,[22],> 32 µM
same,MBC,[23],> 32 µM
same,MBC,[24],32 µM
same,MBC,[25],8 µM
same,MBC,[26],8 µM
same,MBC,[27],> 32 µM
same,MIC,[28],4 µM
same,MIC,[29],> 32 µM
same,MIC,[30],> 32 µM
same,MIC,[31],32 µM
same,"hemolysis at 1 h, 128 µM",[32],< 10%
same,MIC,[33],32 µM
same,MIC,[34],2 µM
same,MIC,[35],2 µM
same,MIC,[36],8 µM
same,MIC,[37],2 µM
same,MIC,[38],2 µM
same,"viability at 8 h, 64 µM",[40],> 80%
same,"viability at 8 h, 64 µM",[41],> 80%
same,HC10,[42],> 128 µM
same,IC50 at 8 h,[43],> 64 µM
same,IC50 at 8 h,[44],> 64 µM
same,IC50 at 8 h,[45],> 64 µM
H-GKLWLKGGKLWLKGGKLWLKG-NH2,MIC,[1],4 µM
same,MIC,[2],1 µM
same,MIC,[3],2 µM
same,MIC,[4],1 µM
same,MIC,[5],8 µM
same,MIC,[6],8 µM
same,MIC,[7],> 32 µM
same,MIC,[8],> 32 µM
same,MIC,[9],> 32 µM
same,MIC,[10],> 32 µM
same,MIC,[11],> 32 µM
same,MIC,[12],> 32 µM
same,MIC,[13],> 32 µM
same,MBC,[14],8 µM
same,MBC,[15],2 µM
same,MBC,[16],4 µM
same,MBC,[17],8 µM
same,MBC,[18],2 µM
same,MBC,[19],16 µM
same,MBC,[20],8 µM
same,MBC,[21],> 32 µM
same,MBC,[22],> 32 µM
same,MBC,[23],> 32 µM
same,MBC,[24],> 32 µM
same,MBC,[25],> 32 µM
same,MBC,[26],> 32 µM
same,MBC,[27],> 32 µM
same,MIC,[28],4 µM
same,MIC,[29],> 32 µM
same,MIC,[30],> 32 µM
same,MIC,[31],> 32 µM
same,"hemolysis at 1 h, 128 µM",[32],< 10%
same,MIC,[33],> 32 µM
same,MIC,[34],4 µM
same,MIC,[35],4 µM
same,MIC,[36],16 µM
same,MIC,[37],4 µM
same,MIC,[38],4 µM
same,"viability at 8 h, 64 µM",[40],> 80%
same,"viability at 8 h, 64 µM",[41],> 80%
same,HC10,[42],> 128 µM
same,IC50 at 8 h,[43],> 64 µM
same,IC50 at 8 h,[44],> 64 µM
same,IC50 at 8 h,[45],> 64 µM

# Reference: ChEMBL document CHEMBL5518215, “Unlocking Antibacterial Potential: Key-Site-Based Regulation of Antibacterial Spectrum of Peptides” (J Med Chem, 2024)
